From ChEMBL document CHEMBL5154708, “Synthesis of tropane-based σ1 receptor antagonists with antiallodynic activity” (Eur J Med Chem, 2022)

Key:
[1] = target: T1, Sigma intracellular receptor 2 (Rattus norvegicus, UniProt Q5U3Y7); assay: Displacement of [3H]di-O-tolylguanidine from sigma 2 receptor in rat liver membrane by competitive radioligand receptor binding assay; format: cell membranes
T1 sequence (Q5U3Y7 whole entry): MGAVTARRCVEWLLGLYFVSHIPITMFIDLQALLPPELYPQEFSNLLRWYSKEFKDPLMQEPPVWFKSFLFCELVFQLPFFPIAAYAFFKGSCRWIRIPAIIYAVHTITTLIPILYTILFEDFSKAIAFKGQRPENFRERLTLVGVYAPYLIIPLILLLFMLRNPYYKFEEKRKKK

[2] = target: Sigma non-opioid intracellular receptor 1 (Cavia porcellus, UniProt Q60492)
[3] = Drug metabolism in mouse liver microsomes assessed as compound oxidization incubated for 90 mins in presence of NAPDH; format: ADME, Microsome; details: read-out: Drug metabolism
[4] = Distribution coefficient between n-Octanol and aqueous buffer, logD of the compound in pH 7.4 buffer by LC/MS analysis; format: physicochemical
[5] = target: Albumin (Homo sapiens, UniProt P02768); assay: Protein binding in human serum albumin by HPAC analysis; format: ADME; details: read-out: PB (converted)
[6] = system: Mus musculus; assay: Antiallodynic activity in capsaicin-induced mechanical allodynia CD1 mouse model assessed as reduction in mechanical allodynia administered subcutaneously preincubated for 30 min followed by capsaicin injection and measured after 15 mins by Von Frey filament assay; format: functional, organism-based; details: dose 8-32 mg/kg, route sc, time 45.0 min, DDE = dose-dependent effect

Chain of Sigma non-opioid intracellular receptor 1 (Q60492 whole entry): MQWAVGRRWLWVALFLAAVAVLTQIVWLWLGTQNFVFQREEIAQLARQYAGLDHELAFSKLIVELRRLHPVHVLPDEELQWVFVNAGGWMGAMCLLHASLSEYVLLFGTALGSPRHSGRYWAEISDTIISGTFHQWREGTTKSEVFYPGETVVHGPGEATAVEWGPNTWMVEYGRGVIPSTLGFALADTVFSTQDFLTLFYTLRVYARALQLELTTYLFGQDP
Chain of Albumin (P02768 whole entry): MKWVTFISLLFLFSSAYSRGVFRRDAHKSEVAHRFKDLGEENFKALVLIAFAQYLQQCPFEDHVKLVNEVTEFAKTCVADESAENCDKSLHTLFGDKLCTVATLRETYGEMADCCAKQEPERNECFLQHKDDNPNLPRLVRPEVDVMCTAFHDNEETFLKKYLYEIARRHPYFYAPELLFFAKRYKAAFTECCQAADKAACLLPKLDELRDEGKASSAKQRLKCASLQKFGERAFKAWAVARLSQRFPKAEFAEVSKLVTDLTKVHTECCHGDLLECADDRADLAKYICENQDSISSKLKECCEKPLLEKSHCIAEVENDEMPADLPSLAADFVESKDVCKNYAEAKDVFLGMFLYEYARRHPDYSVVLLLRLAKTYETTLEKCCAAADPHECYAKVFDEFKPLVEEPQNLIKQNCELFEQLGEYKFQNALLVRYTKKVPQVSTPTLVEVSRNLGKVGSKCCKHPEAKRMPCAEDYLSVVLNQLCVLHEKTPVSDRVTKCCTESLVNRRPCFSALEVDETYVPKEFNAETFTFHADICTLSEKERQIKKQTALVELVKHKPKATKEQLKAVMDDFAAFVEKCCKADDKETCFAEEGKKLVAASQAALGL

SMILES | Ki [1] | Ki [2] | metabolised at 1.5 h [3] | logD [4] | fraction unbound [5] | Activity [6]
O[C@H](CN1[C@@H]2CC[C@H]1C/C(=C/c1ccc(F)cc1)C2)c1ccccc1 | 11 nM | 0.45 nM | – | – | – | –
O[C@@H](CN1[C@@H]2CC[C@H]1C/C(=C/c1ccc(F)cc1)C2)c1ccccc1 | 29 nM | 18 nM | – | – | – | –
O[C@H](CN1[C@@H]2CC[C@H]1C/C(=C\c1ccc(F)cc1)C2)c1ccccc1 | 27 nM | 6.6 nM | – | – | – | –
OC(CN1CCC(Cc2ccc(F)cc2)CC1)c1ccc(Cl)cc1 (centres undefined) [ELIPRODIL] | 71 nM | 94 nM | – | – | – | –
O[C@@H](CN1[C@@H]2CC[C@H]1C/C(=C\c1ccc(F)cc1)C2)c1ccccc1 | 10 nM | 0.8 nM | 32% | 3.06 | 0.05 | Dde
